Experimental data reported in patent US20050106236A1, “5-Ht4partial agonist pharmaceutical compositions” (priority 2001, published 2005).

Test: Solubility of tegaserod in water
Type: physicochemical
Conditions: at 25° C. in water
Procedure: A preferred agent is tegaserod, a 5-HT4 partial agonist of formula [drawing 1] or pharmaceutically acceptable salt form thereof, e.g. the hydrogen maleate (hereinafter “hml”) salt. Tegaserod has a solubility of about 0.02% at 25° C. in water and is acid sensitive.

CCCCCNC(=N)NN=Cc1c[nH]c2ccc(OC)cc12 [Tegaserod, 3-(5-methoxy-1H-Indol-3-yl-methylene)-N-pentylcarbazimidamide]
solubility: about 0.02%
